Measured values as given in PMC7179119, “A New Positron Emission Tomography Probe for Orexin Receptors Neuroimaging” (Molecules, 2020).

What was measured:
OXRs = test: Mouse PET-CT blocking study of [^11C]CW24 uptake; format: in vivo, mice
Description: (§1) Animals were anesthetized with 1–1.5% isoflurane and maintained with isoflurane during the imaging scan. In a single imaging session, mice were arranged in a Triumph PET/CT scanner (Gamma Medica, Northridge, CA). […] Animals underwent a 60 min dynamic PET scan followed by computed tomography (CT).
(§2) PET data were reconstructed using a 3D-MLEM method resulting in a full width at half-maximum resolution of 1 mm. PET and CT images in DICOM format were imported to PMOD (PMOD Technologies, Ltd. Zürich, Switzerland) and co-registered to the brain atlas. Volumes of interest (VOIs) were drawn as spheres in brain regions guided by CT structural images and summed PET data. Time-activity curves (TACs) were exported as activity per unit volume (%ID/cc) for analysis.

OX2R = OX2R vs OX1R; cited from earlier work
[1] = Mouse PET-CT imaging, brain uptake; format: in vivo; details: mice, i.v., baseline
Description: as §1, §2

[2] = Macaque PET-MR imaging and Logan plot kinetic modeling; format: in vivo, rhesus macaque; details: all brain regions examined
Description: A male rhesus macaque (14.4 kg) was included in this study. After endotracheal intubation, the macaque was catheterized antecubitally for radiotracer injection and a radial arterial line was placed for arterial blood sampling and radiometabolite analysis. The animal was anesthetized with 1.2–1.3% Isoflurane in medical oxygen throughout the imaging session. PET-MR data was acquired on a 3T Siemens MRI scanner (Munich, Germany) with a BrainPET insert. A baseline and a blocking scan were performed on the same animal. Dynamic PET image acquisition was initiated followed by a bolus administration of [^11C]CW24 (179 MBq for the baseline scan and 192 MBq for the blocking scan). To characterize the specific binding of [^11C]CW24, a blocking study was carried out in which 2.0 mg/kg IPSU (1.0 % DMSO + 1.0 % Tween 80 + 98.0 % saline to make a solution of 1.0 mg/mL) was administered 5 min prior the acquisition. A T1-weighting multi-echo magnetization-prepared rapid gradient-echo ([…]) sequence began as the PET scan for anatomic co-registration. […]
Motion-corrected PET data were registered to the INIA19 macaque MRI Template. […] With the availability of a metabolite-corrected arterial plasma data, the regional volume of distribution (VT) was calculated using Logan Plot analysis (with a fixed t* of 40 min).

[3] = Plasma and metabolite analysis; format: in vivo, rhesus macaque; details: macaque arterial plasma, at 30 min
Description: Briefly, arterial blood samples collected (every 10 s at first 3 min post-administration of [^11C]CW24, then 5 min, 10 min, 20 min, 30 min, 45 min, 60 min, and 90 min) during macaque imaging were centrifuged to separate plasma, which was then removed and placed in an automated gamma counter. Metabolite analysis of blood samples collected from 5 to 90 min was conducted on a custom automated robot fitted with Phenomenex SPE Strata-X 500 mg solid phase extraction cartridges that were primed with ethanol (2 mL) and deionized water (20 mL). Protein precipitation was achieved by the addition of plasma (300 μL) to acetonitrile (300 μL), which was centrifuged for 1 min to obtain protein-free plasma (PFP). Three hundred microliters of PFP/acetonitrile solution was diluted into deionized water (3 mL), loaded onto the C18 cartridge, and removed of polar metabolites with 100% water. Next, a series of extractions was performed using water and acetonitrile. Each sample was counted in a WIZARD2 Automatic Gamma Counter to determine the presence of radiolabeled metabolites.

[4] = biological target: T1, Human recombinant OX2 receptors (Homo sapiens, UniProt O43614); test: Human Orexin GPCR Binding (Agonist Radioligand) Assay, [125I] Orexin A competition; details: radioligand competition binding assay; read-out: IC50 (nM) OXR2
T1 sequence (O43614 1-444): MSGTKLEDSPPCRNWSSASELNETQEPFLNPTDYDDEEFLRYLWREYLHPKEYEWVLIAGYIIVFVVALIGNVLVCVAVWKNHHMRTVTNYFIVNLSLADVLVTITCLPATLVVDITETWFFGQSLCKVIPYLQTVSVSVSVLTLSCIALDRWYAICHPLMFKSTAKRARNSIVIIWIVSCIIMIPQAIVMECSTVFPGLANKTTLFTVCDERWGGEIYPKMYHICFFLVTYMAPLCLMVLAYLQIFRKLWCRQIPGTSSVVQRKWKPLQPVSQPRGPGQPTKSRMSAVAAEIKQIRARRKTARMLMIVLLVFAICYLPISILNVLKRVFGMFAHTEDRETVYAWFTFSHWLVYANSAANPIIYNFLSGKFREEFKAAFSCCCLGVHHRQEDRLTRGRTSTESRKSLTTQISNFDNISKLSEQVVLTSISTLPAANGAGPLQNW
Description: (§3) Radioligand competition binding assays were performed by Panlabs, Eurofins Pharma Discovery Services. Briefly, human recombinant orexin OX1 receptors expressed in CHO-S cells were used in modified HEPES buffer pH 7.4. […] Orexin A for 60 minutes at 25 °C. […] Orexin A specifically binding. Human recombinant OX2 receptors were used in modified HEPES buffer pH 7.4. […] Orexin A for 180 minutes at 25 °C. […] Orexin A specifically bound.

[5] = biological target: T2, human recombinant orexin OX1 receptors (Homo sapiens, UniProt O43613); test: as above; details: radioligand competition binding assay; read-out: IC50 (nM) OXR1
T2 construct: host or cells: CHO-S cells
T2 sequence (O43613 1-425): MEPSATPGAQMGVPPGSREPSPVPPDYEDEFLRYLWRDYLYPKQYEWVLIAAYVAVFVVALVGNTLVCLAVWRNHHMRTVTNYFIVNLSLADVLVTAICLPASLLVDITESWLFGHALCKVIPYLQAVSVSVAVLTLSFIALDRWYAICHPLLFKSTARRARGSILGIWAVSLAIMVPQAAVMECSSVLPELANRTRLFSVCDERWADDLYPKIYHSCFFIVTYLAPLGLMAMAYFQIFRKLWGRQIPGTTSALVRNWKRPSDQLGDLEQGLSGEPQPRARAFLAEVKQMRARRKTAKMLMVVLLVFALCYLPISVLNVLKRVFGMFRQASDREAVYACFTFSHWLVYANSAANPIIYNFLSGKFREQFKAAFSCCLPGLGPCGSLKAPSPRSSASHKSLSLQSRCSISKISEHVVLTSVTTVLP
Description: as §3

Cc1ccc(-n2nccn2)c(C(=O)N2CCN(c3nc4cc(Cl)ccc4o3)CC[C@H]2C)c1 [Suvorexant]
reduction in [^11C]CW24 uptake (OXRs; mouse brain, Suvorexant 5.0 mg/kg i.v., 30–60 mins post-injection): approximately 50%

orexin-B: orexin peptide with 28 amino acids
higher affinity for OX2R compared with OX1R (OX2R): 10 fold

COc1ccnc(N2CCC3(CCCN(Cc4cn([11CH3])c5ccccc45)C3=O)CC2)n1 [[^11C]CW24]
brain uptake %ID/cc at Cmax [1]: 3.5 %ID/cc | peak standard uptake value (SUV) [2]: 1.5–3.0 | parent compound in plasma [3]: ~ 47%

COc1ccnc(N2CCC3(CCCN(Cc4c[nH]c5ccccc45)C3=O)CC2)n1 [IPSU, reference compound]
IC50 [4]: 3130 nM | IC50 [5]: 1090 nM | reduction in [^11C]CW24 uptake (OXRs; mice brain, 0.5 mg/kg IPSU i.v. 5 min pretreatment, 30–60 mins post-injection): Approximately 10% | reduction in [^11C]CW24 uptake (OXRs; mice brain, 2.0 mg/kg IPSU i.v. 5 min pretreatment): approximately 50%
